Reference: ChEMBL document CHEMBL4052645, “Discovery of potent and efficacious pyrrolopyridazines as dual JAK1/3 inhibitors” (Bioorg Med Chem Lett, 2017)

Experiments:
[1] = target: Serine/threonine-protein kinase SBK1 (Homo sapiens) (UniProt Q52WX2); assay: Inhibition of wild-type human partial length SBK1 (P23 to P348 residues) expressed in mammalian expression system assessed as residual activity at 50 nM by Kinomescan method relative to control
[2] = target: Tyrosine-protein kinase TXK (Homo sapiens) (UniProt P42681); assay: Inhibition of wild-type human partial length TXK (L238 to W527 residues) expressed in bacterial expression system assessed as residual activity at 50 nM by Kinomescan method relative to control
[3] = target: Casein kinase I isoform delta (Homo sapiens) (UniProt P48730); assay: Inhibition of wild-type human full length CK1D (M1 to K409 residues) expressed in bacterial expression system assessed as residual activity at 50 nM by Kinomescan method relative to control
[4] = target: RAC-beta serine/threonine-protein kinase (Homo sapiens) (UniProt P31751); assay: Inhibition of wild-type human partial length AKT2 expressed in bacterial expression system assessed as residual activity at 50 nM by Kinomescan method relative to control
[5] = target: Mitogen-activated protein kinase 6 (Homo sapiens) (UniProt Q16659); assay: Inhibition of wild-type human partial length ERK3 (M1 to P413 residues) expressed in bacterial expression system assessed as residual activity at 50 nM by Kinomescan method relative to control
[6] = target: Serine/threonine-protein kinase PAK 4 (Homo sapiens) (UniProt O96013); assay: Inhibition of wild-type human partial length PAK4 (Q144 to R438 residues) expressed in bacterial expression system assessed as residual activity at 50 nM by Kinomescan method relative to control
[7] = target: Protein-tyrosine kinase 6 (Homo sapiens) (UniProt Q13882); assay: Inhibition of wild-type human partial length BRK (L166 to T451 residues) expressed in bacterial expression system assessed as residual activity at 50 nM by Kinomescan method relative to control
[8] = target: 5'-AMP-activated protein kinase catalytic subunit alpha-1 (Homo sapiens) (UniProt Q13131); assay: Inhibition of wild-type human partial length AMPK alpha1 (M1 to E306 residues) expressed in bacterial expression system assessed as residual activity at 50 nM by Kinomescan method relative to control
[9] = target: Homeodomain-interacting protein kinase 4 (Homo sapiens) (UniProt Q8NE63); assay: Inhibition of wild-type human partial length HIPK4 (M1 to V384 residues) expressed in bacterial expression system assessed as residual activity at 50 nM by Kinomescan method relative to control
[10] = target: Serine/threonine-protein kinase Nek5 (Homo sapiens) (UniProt Q6P3R8); assay: Inhibition of wild-type human partial length NEK5 (M1 to M279 residues) expressed in bacterial expression system assessed as residual activity at 50 nM by Kinomescan method relative to control
[11] = target: BDNF/NT-3 growth factors receptor (Homo sapiens) (UniProt Q16620); assay: Inhibition of wild-type human partial length TRKB (Q547 to G838 residues) expressed in mammalian expression system assessed as residual activity at 50 nM by Kinomescan method relative to control
[12] = target: Serine/threonine-protein kinase MRCK alpha (Homo sapiens) (UniProt Q5VT25); assay: Inhibition of wild-type human partial length MRCKA (L57 to V418 residues) expressed in bacterial expression system assessed as residual activity at 50 nM by Kinomescan method relative to control
[13] = target: Serine/threonine-protein kinase ULK1 (Homo sapiens) (UniProt O75385); assay: Inhibition of human ULK1 (M1 to T309 residues) expressed in mammalian expression system assessed as residual activity at 50 nM by KINOMEscan assay relative to control
[14] = target: Vascular endothelial growth factor receptor 1 (Homo sapiens) (UniProt P17948); assay: Inhibition of wild-type human partial length FLT1 (R781 to F1239 residues) expressed in bacterial expression system assessed as residual activity at 50 nM by Kinomescan method relative to control
[15] = target: STE20-like serine/threonine-protein kinase (Homo sapiens) (UniProt Q9H2G2); assay: Inhibition of wild-type human partial length SLK (S14 to A307 residues) expressed in bacterial expression system assessed as residual activity at 50 nM by Kinomescan method relative to control
[16] = target: Cyclin-dependent kinase 9 (Homo sapiens) (UniProt P50750); assay: Inhibition of wild-type human full length CDK9 (M1 to F372 residues) expressed in bacterial expression system assessed as residual activity at 50 nM by Kinomescan method relative to control
[17] = target: Serine/threonine-protein kinase PLK2 (Homo sapiens) (UniProt Q9NYY3); assay: Inhibition of wild-type human partial length PLK2 (H58 to F354 residues) expressed in mammalian expression system assessed as residual activity at 50 nM by Kinomescan method relative to control
[18] = target: Protein kinase C theta type (Homo sapiens) (UniProt Q04759); assay: Inhibition of wild-type human partial length PKCT (L350 to S706 residues) expressed in bacterial expression system assessed as residual activity at 50 nM by Kinomescan method relative to control
[19] = target: Serine/threonine-protein kinase Nek6 (Homo sapiens) (UniProt Q9HC98); assay: Inhibition of wild-type human full length NEK6 (M8 to T313 residues) expressed in bacterial expression system assessed as residual activity at 50 nM by Kinomescan method relative to control
[20] = target: cGMP-dependent protein kinase 2 (Homo sapiens) (UniProt Q13237); assay: Inhibition of wild-type human partial length PKG2 (S422 to F762 residues) expressed in mammalian expression system assessed as residual activity at 50 nM by Kinomescan method relative to control
[21] = target: Activin receptor type-1-like (Homo sapiens) (UniProt P37023); assay: Inhibition of wild-type human ALK1 (L164 to Q503 residues) expressed in bacterial expression system assessed as residual activity at 50 nM by Kinomescan method relative to control
[22] = target: Serine/threonine-protein kinase 32B (Homo sapiens) (UniProt Q9NY57); assay: Inhibition of wild-type human full length YANK2 (M1 to S414 residues) expressed in bacterial expression system assessed as residual activity at 50 nM by Kinomescan method relative to control
[23] = target: Serine/threonine-protein kinase BRSK2 (Homo sapiens) (UniProt Q8IWQ3); assay: Inhibition of wild-type human full length BRSK2 (M1 to L674 residues) expressed in bacterial expression system assessed as residual activity at 50 nM by Kinomescan method relative to control
[24] = target: TRAF2 and NCK-interacting protein kinase (Homo sapiens) (UniProt Q9UKE5); assay: Inhibition of wild-type human partial length TNIK (D4 to K311 residues) expressed in bacterial expression system assessed as residual activity at 50 nM by Kinomescan method relative to control
[25] = target: Platelet-derived growth factor receptor alpha (Homo sapiens) (UniProt P16234); assay: Inhibition of wild-type human partial length PDGFRA (V575 to D1002 residues) expressed in mammalian expression system assessed as residual activity at 50 nM by Kinomescan method relative to control
Platelet-derived growth factor receptor alpha (Homo sapiens), sequence (P16234 whole entry, the tested form may be a part): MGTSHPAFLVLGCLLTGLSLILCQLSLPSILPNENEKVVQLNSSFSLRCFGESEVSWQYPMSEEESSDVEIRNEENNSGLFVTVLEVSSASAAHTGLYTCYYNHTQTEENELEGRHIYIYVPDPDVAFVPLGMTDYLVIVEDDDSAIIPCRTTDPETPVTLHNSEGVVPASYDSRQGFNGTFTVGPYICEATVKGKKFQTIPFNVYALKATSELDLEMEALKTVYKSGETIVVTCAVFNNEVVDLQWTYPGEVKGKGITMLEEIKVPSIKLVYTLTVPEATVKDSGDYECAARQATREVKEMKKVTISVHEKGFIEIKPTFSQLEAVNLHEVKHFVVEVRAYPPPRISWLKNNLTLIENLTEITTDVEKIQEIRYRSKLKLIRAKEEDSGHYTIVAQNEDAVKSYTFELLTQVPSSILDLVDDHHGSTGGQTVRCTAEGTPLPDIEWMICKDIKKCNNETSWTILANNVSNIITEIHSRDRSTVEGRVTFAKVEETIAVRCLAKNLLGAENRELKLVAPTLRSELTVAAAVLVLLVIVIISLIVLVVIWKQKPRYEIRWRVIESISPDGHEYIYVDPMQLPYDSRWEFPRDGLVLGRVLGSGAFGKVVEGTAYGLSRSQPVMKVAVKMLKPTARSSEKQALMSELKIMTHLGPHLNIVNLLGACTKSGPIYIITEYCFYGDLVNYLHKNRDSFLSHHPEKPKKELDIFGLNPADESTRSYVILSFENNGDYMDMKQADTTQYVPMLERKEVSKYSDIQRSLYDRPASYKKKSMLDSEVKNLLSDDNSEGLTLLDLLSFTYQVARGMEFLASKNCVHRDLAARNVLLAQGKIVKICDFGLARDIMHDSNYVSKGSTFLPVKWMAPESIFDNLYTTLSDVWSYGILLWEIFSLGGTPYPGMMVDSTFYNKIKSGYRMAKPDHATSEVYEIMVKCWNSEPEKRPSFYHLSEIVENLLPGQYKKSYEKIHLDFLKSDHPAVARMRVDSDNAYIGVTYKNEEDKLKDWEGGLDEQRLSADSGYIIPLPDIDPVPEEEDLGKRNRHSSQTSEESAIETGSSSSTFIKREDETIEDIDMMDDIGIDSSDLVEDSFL

Serine/threonine-protein kinase ULK1 (Homo sapiens), sequence (O75385 whole entry, the tested form may be a part): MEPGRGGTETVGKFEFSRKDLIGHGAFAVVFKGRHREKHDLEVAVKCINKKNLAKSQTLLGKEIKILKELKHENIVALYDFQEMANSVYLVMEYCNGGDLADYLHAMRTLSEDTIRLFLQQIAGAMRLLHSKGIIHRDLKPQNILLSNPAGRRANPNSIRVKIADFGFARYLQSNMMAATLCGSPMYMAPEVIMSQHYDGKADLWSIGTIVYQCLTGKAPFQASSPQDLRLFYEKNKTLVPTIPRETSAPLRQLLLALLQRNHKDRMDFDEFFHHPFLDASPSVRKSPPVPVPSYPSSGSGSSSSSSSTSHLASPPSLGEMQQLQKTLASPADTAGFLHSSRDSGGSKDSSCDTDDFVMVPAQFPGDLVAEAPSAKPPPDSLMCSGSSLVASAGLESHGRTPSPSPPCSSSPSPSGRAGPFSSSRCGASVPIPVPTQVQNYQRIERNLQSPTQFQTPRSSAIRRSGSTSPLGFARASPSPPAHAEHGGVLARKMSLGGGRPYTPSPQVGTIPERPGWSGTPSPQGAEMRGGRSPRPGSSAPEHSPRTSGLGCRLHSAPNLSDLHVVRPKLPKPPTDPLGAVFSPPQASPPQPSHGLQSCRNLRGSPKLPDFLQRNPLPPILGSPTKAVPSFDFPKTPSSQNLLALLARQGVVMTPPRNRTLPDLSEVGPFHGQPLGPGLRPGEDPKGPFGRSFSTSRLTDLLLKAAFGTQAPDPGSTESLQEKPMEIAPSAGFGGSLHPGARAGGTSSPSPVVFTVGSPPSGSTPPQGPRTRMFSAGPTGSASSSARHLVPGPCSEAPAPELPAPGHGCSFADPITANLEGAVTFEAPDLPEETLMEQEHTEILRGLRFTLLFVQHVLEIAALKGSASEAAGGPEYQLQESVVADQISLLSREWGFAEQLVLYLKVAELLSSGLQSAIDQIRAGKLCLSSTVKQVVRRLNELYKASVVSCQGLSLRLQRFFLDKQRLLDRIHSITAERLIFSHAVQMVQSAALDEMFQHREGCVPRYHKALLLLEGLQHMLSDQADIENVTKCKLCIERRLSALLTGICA
BDNF/NT-3 growth factors receptor (Homo sapiens), sequence (Q16620 32-822 limits assumed): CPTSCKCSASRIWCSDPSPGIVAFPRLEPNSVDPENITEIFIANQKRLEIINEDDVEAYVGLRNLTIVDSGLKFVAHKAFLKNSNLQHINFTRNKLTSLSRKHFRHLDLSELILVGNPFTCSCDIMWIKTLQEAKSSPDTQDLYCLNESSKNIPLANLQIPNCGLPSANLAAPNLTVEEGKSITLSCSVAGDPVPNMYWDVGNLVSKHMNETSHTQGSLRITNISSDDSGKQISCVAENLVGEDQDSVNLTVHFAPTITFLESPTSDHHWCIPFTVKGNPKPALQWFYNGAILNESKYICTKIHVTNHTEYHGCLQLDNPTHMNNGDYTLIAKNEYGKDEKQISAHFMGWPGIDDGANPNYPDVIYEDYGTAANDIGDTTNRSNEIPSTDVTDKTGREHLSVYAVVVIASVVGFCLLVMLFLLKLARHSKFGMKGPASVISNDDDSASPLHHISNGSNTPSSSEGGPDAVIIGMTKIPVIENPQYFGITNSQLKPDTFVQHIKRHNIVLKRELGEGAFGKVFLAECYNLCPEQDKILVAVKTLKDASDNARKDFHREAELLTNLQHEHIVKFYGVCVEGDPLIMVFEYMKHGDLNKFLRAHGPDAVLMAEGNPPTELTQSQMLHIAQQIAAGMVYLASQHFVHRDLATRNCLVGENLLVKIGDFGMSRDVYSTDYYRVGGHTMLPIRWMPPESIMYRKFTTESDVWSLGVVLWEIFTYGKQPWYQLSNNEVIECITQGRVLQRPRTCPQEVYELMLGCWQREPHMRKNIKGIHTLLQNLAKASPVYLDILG
TRAF2 and NCK-interacting protein kinase (Homo sapiens), sequence (Q9UKE5 whole entry, looked up, the tested form may be a part): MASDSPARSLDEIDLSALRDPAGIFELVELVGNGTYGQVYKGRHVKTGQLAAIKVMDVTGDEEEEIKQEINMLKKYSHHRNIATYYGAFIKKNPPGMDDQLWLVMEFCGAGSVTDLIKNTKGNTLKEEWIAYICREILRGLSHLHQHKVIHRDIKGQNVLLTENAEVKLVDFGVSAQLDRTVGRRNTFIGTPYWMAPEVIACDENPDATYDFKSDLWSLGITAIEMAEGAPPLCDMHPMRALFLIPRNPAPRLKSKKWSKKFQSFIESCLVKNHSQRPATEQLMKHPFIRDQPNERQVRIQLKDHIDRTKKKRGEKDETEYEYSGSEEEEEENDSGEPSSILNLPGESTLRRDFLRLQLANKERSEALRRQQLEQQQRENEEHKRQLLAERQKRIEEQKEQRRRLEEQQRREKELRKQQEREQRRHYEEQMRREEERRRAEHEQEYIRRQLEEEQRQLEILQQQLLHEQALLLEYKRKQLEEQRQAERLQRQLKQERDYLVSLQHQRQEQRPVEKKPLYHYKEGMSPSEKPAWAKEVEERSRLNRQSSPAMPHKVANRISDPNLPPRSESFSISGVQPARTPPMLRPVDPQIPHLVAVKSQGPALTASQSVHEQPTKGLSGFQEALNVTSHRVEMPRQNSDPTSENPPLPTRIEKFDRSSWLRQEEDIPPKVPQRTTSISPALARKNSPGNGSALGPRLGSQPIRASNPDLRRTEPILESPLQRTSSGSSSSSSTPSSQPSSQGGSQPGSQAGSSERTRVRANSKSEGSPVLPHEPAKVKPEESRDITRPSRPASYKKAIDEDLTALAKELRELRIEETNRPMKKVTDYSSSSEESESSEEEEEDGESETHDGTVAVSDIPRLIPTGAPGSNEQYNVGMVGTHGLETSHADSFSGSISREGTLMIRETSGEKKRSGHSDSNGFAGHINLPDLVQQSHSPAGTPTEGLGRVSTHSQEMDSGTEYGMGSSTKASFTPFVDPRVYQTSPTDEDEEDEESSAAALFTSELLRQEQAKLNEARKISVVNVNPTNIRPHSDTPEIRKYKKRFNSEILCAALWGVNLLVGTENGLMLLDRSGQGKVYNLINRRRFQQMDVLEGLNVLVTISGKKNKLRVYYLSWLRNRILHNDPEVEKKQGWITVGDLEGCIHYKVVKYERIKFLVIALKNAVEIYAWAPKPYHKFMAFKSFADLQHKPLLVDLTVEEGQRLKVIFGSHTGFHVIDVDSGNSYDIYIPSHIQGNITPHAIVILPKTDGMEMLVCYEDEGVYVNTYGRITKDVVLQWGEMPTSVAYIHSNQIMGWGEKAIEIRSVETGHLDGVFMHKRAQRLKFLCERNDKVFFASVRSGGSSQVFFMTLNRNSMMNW
5'-AMP-activated protein kinase catalytic subunit alpha-1 (Homo sapiens), sequence (Q13131 whole entry, looked up, the tested form may be a part): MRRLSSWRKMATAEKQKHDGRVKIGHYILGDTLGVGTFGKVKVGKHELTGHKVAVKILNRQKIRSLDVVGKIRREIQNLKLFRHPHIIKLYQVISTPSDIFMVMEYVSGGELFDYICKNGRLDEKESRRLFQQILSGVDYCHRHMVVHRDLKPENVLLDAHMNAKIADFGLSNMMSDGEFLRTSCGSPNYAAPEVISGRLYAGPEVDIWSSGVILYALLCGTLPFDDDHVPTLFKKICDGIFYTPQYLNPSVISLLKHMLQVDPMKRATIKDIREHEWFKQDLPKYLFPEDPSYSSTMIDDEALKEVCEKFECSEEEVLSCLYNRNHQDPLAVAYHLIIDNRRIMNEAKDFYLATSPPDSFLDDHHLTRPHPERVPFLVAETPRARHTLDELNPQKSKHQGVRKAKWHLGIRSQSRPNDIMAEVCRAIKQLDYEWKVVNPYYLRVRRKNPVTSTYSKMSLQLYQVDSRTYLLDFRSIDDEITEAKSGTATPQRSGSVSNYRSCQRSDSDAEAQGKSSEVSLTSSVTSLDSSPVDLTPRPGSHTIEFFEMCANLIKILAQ

Structure (SMILES) | Activity [1] [%] | Activity [2] [%] | Activity [3] [%] | Activity [4] [%] | Activity [5] [%] | Activity [6] [%] | Activity [7] [%] | Activity [8] [%] | Activity [9] [%] | Activity [10] [%] | Activity [11] [%] | Activity [12] [%] | Activity [13] [%] | Activity [14] [%] | Activity [15] [%] | Activity [16] [%] | Activity [17] [%] | Activity [18] [%] | Activity [19] [%] | Activity [20] [%] | other results
COc1ccc(-c2cc3c(N[C@@H]4CC[C@](C)(N)C4(C)C)c(C(N)=O)cnn3c2)cn1 | 72 | 100 | 100 | 88 | 100 | 86 | 96 | 62 | 80 | 100 | 100 | 97 | 61 | 90 | 94 | 100 | 100 | 74 | 97 | 100 | Activity [21]: 100%; Activity [22]: 100%; Activity [23]: 96%; Activity [24]: 93%; Activity [25]: 97%
CC1(C)[C@H](Nc2c(C(N)=O)cnn3cc(-c4ccccc4)cc23)CC[C@]1(C)N | 100 | 100 | 98 | 100 | 82 | 73 | 100 | 37 | 100 | 100 | 80 | 74 | 27 | 100 | 18 | 93 | 100 | 38 | 88 | 87 | Activity [21]: 100%; Activity [22]: 100%; Activity [23]: 100%; Activity [24]: 66%; Activity [25]: 67%
